The assay addresses T1, human MR (Homo sapiens, UniProt P08235).
T1 construct: The full length human MR gene is cloned from a human kidney or human brain cDNA library; made in house; host or cells: Sf9 insect cells (baculovirus, pAcHLT transfer vector)
T1 sequence (P08235 1-984): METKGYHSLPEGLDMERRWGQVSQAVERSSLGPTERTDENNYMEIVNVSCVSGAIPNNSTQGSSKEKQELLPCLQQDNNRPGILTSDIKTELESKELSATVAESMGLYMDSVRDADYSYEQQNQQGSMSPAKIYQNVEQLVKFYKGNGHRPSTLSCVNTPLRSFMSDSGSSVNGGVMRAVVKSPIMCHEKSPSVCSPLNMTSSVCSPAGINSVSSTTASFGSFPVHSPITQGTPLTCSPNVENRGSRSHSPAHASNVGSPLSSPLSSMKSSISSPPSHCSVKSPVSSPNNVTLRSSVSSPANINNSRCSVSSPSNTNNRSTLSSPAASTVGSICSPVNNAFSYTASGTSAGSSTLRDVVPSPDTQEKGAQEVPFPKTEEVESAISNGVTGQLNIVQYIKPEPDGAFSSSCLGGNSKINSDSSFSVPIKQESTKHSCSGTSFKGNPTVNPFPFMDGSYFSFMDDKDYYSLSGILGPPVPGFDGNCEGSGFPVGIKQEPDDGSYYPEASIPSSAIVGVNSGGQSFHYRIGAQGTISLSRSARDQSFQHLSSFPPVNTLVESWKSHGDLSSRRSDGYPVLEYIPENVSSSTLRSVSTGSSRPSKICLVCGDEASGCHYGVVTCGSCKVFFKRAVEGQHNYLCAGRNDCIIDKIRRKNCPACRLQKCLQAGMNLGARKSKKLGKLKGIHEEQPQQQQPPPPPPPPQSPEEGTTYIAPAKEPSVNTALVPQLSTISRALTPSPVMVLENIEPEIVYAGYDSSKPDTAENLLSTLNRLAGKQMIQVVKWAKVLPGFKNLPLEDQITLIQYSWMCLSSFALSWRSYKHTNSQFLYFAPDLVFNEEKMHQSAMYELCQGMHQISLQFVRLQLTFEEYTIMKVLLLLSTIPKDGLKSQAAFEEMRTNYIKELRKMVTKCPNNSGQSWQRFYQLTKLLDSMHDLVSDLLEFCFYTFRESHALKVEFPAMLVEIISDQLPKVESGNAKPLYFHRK
The assay can be described thus: Mineralocorticoid Receptor Binding Assay ([3H]-aldosterone displacement). As to conditions: full length human MR expressed in Sf9 cells, 0.5 nM [3H]-aldosterone. As to the method:
Mineralocorticoid Receptor Binding Assay:
The full length human MR gene is cloned from a human kidney or human brain cDNA library. Briefly, using synthetic oligonucleotide primers (Eli Lilly and Company, Indianapolis) directed to nucleotides 20-54 and 3700-3666 of the human MR, polymerase chain reaction (PCR) is performed under standard conditions using a human cDNA library. The PCR reaction is performed in a final volume of 50 μl containing about 1 μl of a 50× stock solution of polymerase; about 1 μl of a 50× stock solution of dNTP; about 5 μl of an appropriate PCR buffer; about 1 μl of each primer; about 5 μl of a H. kidney or H. brain cDNA library; and about 36 μl of water. The reaction is allowed to denature for about 30 seconds at 95 degrees Celsius, anneal for about 30 seconds at 55 degrees Celsius, and extend for about 5 minutes at 72 degrees Celsius, the sequence being repeated for a total of about 35 cycles. The desired PCR product (3.68 Kb) is confirmed by gel electrophoresis and subsequently cut from the gel and stored at about −20 degrees Celsius until extraction. To extract the cDNA product from the agarose gel, the QIAEX II Gel Extraction protocol (QIAGEN, Inc.) is employed according to the manufacturer's instructions. Following extraction, the MR cDNA is cloned into an appropriate cloning vector (Zero Blunt TOPO PCR Cloning Kit (Invitrogen, Inc.) and a pAcHLT-baculovirus transfer vector (B.D./Pharminogen), then expressed in SF9 insect cells, essentially according to manufacturer's instructions. Sf9 cells are grown at a scale where gram quantity cell pellets are obtained for subsequent use in the MR binding assay. Harvested cell pellets are lysed by repeated freeze-thaw cycles (about 4) in a suitable lysis buffer then centrifuged at about 1×10^3 G (with the supernatant being saved for future assays).
MR binding assays are performed in a final total volume of about 250 μl containing about 20-25 μg of protein and 0.5 nM of [^3H]-aldosterone plus varying concentrations of test compound or vehicle. The assay binding buffer consists of 30 mM sodium molybdate, 30 mM of TRIS-HCl, 5 mM sodium phosphate, 5 mM sodium pyrophosphate, and about 10% glycerol, pH=7.5.
Briefly, assays are prepared at RT in 96-well Falcon 3072 plates, each well containing 210 μl of binding buffer, 10 μl of [^3H]-aldosterone, 10 μl of test compound/vehicle, and 20 μl of the resuspended receptor protein extract. Incubations are carried out at 4 degrees Celsius with shaking for about 16 hours. 200 μl aliquots of each incubation are filtered onto Millipore HA 0.45 micron 96-well filter plates, pre-moistened with cold 30 mM TRIS-HCl. The filter plates are suctioned dry with vacuum and immediately washed 3× with cold 30 mM TRIS-HCl. The plates are then punched out and the amount of receptor-ligand complex is determined by liquid scintillation counting using 4 ml of Ready Protein Plus™ liquid scintillation cocktail.
IC50 values (defined as the concentration of test compound required to decrease [^3H]-aldosterone binding by 50%) are then determined. Ki values for each respective test compound can then be calculated by application of the Cheng-Prusoff equation as described in Cheng et al., Relationship Between The Inhibition Constant (Ki) and The Concentration of Inhibitor Which Causes 50% Inhibition (IC50) of an Enzymatic Reaction, Biochem. Pharmacol., 22: 3099-31088; (1973).

`COc1ccc(CN2C(=O)C(c3cc(C)c(O)c(C)c3)(c3cc(C)c(O)c(C)c3)c3ccccc32)cc1` [Example 1, 3,3-Bis-(4-hydroxy-3,5-dimethyl-phenyl)-1-(4-methoxy-benzyl)-1,3-dihydro-indol-2-one] displayed a Ki of at most 500 nM.
For `COC(=O)c1ccc(CN2C(=O)C(c3cc(C)c(O)c(C)c3)(c3cc(C)c(O)c(C)c3)c3ccccc32)cc1` [Example 3, 4-[3,3-Bis-(4-hydroxy-3,5-dimethyl-phenyl)-2-oxo-2,3-dihydro-indol-1-ylmethyl]-benzoic acid methyl ester] the value was at most 500 nM; for `Cc1cc(C2(c3cc(C)c(O)c(C)c3)C(=O)N(C)c3ccccc32)cc(C)c1O` [Example 4, 3,3-Bis-(4-hydroxy-3,5-dimethyl-phenyl)-1-methyl-1,3-dihydro-indol-2-one], at most 1000 nM.
For `CCCN1C(=O)C(c2cc(C)c(O)c(C)c2)(c2cc(C)c(O)c(C)c2)c2ccccc21` [Example 5, 3,3-Bis-(4-hydroxy-3,5-dimethyl-phenyl)-1-propyl-1,3-dihydro-indol-2-one] the value was at most 500 nM; for `Cc1cc(C2(c3cc(C)c(O)c(C)c3)C(=O)N(CC3CCCCC3)c3ccccc32)cc(C)c1O` [Example 6, 1-Cyclohexylmethyl-3,3-bis-(4-hydroxy-3,5-dimethyl-phenyl)-1,3-dihydro-indol-2-one], at most 500 nM; for `Cc1cc(C2(c3cc(C)c(O)c(C)c3)C(=O)N(Cc3cccc(OC(F)(F)F)c3)c3ccccc32)cc(C)c1O` [Example 8, 3,3-Bis-(4-hydroxy-3,5-dimethyl-phenyl)-1-(3-trifluoromethoxy-benzyl)-1,3-dihydro-indol-2-one], at most 500 nM.
On to `Cc1cc(C2(c3cc(C)c(O)c(C)c3)C(=O)N(Cc3c(C)noc3C)c3ccccc32)cc(C)c1O` [Example 9, 1-(3,5-Dimethyl-isoxazol-4-ylmethyl)-3,3-bis-(4-hydroxy-3,5-dimethyl-phenyl)-1,3-dihydro-indol-2-one], for which the Ki is at most 500 nM.
In turn, `Cc1cc(C2(c3cc(C)c(O)c(C)c3)C(=O)N(Cc3ccccc3Cl)c3ccccc32)cc(C)c1O` [Example 11, 1-(2-Chloro-benzyl)-3,3-bis-(4-hydroxy-3,5-dimethyl-phenyl)-1,3-dihydro-indol-2-one] showed a Ki of at most 500 nM.
The same measure for `Cc1cc(C2(c3ccc(O)c(C)c3)C(=O)N(Cc3ccccc3)c3ccccc32)ccc1O` [Example 12, 1-Benzyl-3,3-bis-(4-hydroxy-3-methyl-phenyl)-1,3-dihydro-indol-2-one]: at most 500 nM; for `O=C1N(Cc2ccccc2)c2ccccc2C1(c1cc(Cl)c(O)c(Cl)c1)c1cc(Cl)c(O)c(Cl)c1` [Example 14, 1-Benzyl-3,3-bis-(3,5-dichloro-4-hydroxy-phenyl)-1,3-dihydro-indol-2-one]: at most 1000 nM; for `Cc1cc(C2(c3cc(C)c(O)c(C)c3)C(=O)N(Cc3ccccc3)c3ccc(Br)cc32)cc(C)c1O` [Example 15, 1-Benzyl-5-bromo-3,3-bis-(4-hydroxy-3,5-dimethyl-phenyl)-1,3-dihydro-indol-2-one]: at most 500 nM.
Turning to `Cc1ccc2c(c1)C(c1cc(C)c(O)c(C)c1)(c1cc(C)c(O)c(C)c1)C(=O)N2Cc1ccccc1` [Example 17, 1-Benzyl-3,3-bis-(4-hydroxy-3,5-dimethyl-phenyl)-5-methyl-1,3-dihydro-indol-2-one], the Ki was at most 500 nM.
`Cc1cc(C2(c3cc(C)c(O)c(C)c3)C(=O)N(Cc3ccccc3Cl)c3ccc(Br)cc32)cc(C)c1O` [Example 19, 5-Bromo-1-(2-chloro-benzyl)-3,3-bis-(4-hydroxy-3,5-dimethyl-phenyl)-1,3-dihydro-indol-2-one] had a Ki of at most 500 nM.
`Cc1ccccc1CN1C(=O)C(c2cc(C)c(O)c(C)c2)(c2cc(C)c(O)c(C)c2)c2cc(Br)ccc21` [Example 20, 5-Bromo-3,3-bis-(4-hydroxy-3,5-dimethyl-phenyl)-1-(2-methyl-benzyl)-1,3-dihydro-indol-2-one] had a Ki of at most 500 nM.
For `Cc1ccc2c(c1)C(c1cc(C)c(O)c(C)c1)(c1cc(C)c(O)c(C)c1)C(=O)N2Cc1ccccc1C` [Example 21, 3,3-Bis-(4-hydroxy-3,5-dimethyl-phenyl)-5-methyl-1-(2-methyl-benzyl)-1,3-dihydro-indol-2-one] the value was at most 500 nM; for `Cc1ccc2c(c1)C(c1cc(C)c(O)c(C)c1)(c1cc(C)c(O)c(C)c1)C(=O)N2Cc1ccccc1Cl` [Example 22, 1-(2-Chloro-benzyl)-3,3-bis-(4-hydroxy-3,5-dimethyl-phenyl)-5-methyl-1,3-dihydro-indol-2-one], at most 500 nM.
`Cc1ccc2c(c1)C(c1cc(C)c(O)c(C)c1)(c1cc(C)c(O)c(C)c1)C(=O)N2Cc1ccccc1C#N` [Example 23, 2-[3,3-Bis-(4-hydroxy-3,5-dimethyl-phenyl)-5-methyl-2-oxo-2,3-dihydro-indol-1-ylmethyl]-benzonitrile] showed a Ki of at most 500 nM.
For `Cc1cc(C2(c3cc(C)c(O)c(C)c3)C(=O)N(Cc3ccccc3Cl)c3c(C)cccc32)cc(C)c1O` [Example 24, 1-(2-Chloro-benzyl)-3,3-bis-(4-hydroxy-3,5-dimethyl-phenyl)-7-methyl-1,3-dihydro-indol-2-one] the value was at most 500 nM; for `CCc1cccc2c1N(Cc1ccccc1Cl)C(=O)C2(c1cc(C)c(O)c(C)c1)c1cc(C)c(O)c(C)c1` [Example 25, 1-(2-Chloro-benzyl)-7-ethyl-3,3-bis-(4-hydroxy-3,5-dimethyl-phenyl)-1,3-dihydro-indol-2-one], at most 500 nM; for `Cc1cc(C2(c3cc(C)c(O)c(C)c3)C(=O)N(Cc3ccccc3Cl)c3cccc(Cl)c32)cc(C)c1O` [Example 26, 4-Chloro-1-(2-chloro-benzyl)-3,3-bis-(4-hydroxy-3,5-dimethyl-phenyl)-1,3-dihydro-indol-2-one], at most 500 nM.
For `Cc1cc(C2(c3cc(C)c(O)c(C)c3)C(=O)N(Cc3ccccc3Cl)c3ccccc32)cc(C)c1N` (stereo not shown) [Example 35, 3-(4-Amino-3,5-dimethyl-phenyl)-1-(2-chloro-benzyl)-3-(4-hydroxy-3,5-dimethyl-phenyl)-1,3-dihydro-indol-2-one] the value was at most 500 nM; for `Cc1cc(C2(c3ccc(O)cc3)C(=O)N(Cc3ccccc3Cl)c3ccccc32)cc(C)c1O` (stereo not shown) [Example 36, 1-(2-Chloro-benzyl)-3-(4-hydroxy-3,5-dimethyl-phenyl)-3-(4-hydroxy-phenyl)-1,3-dihydro-indol-2-one], at most 500 nM.
